Reference: PubChem BioAssay (NCI)
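Cells were grown in 96-well plates and exposed to each compound for 48 hours at five concentrations; endpoints were interpolated linearly between bracketing concentrations, or set to the highest concentration if not reached. At the TGI there is no net growth.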

Key:
Assay in all cases: inhibition of tumour cell growth, NCI panel, 48 h
786-0 renal = tested on: 786-0 renal
A498 renal = tested on: A498 renal
A549 NSCLC = tested on: A549 NSCLC
ACHN renal = tested on: ACHN renal
CAKI-1 renal = tested on: CAKI-1 renal
CCRF-CEM leukemia = tested on: CCRF-CEM leukemia
COLO 205 colon = tested on: COLO 205 colon
DU-145 prostate = tested on: DU-145 prostate
HCC-2998 colon = tested on: HCC-2998 colon
HCT-116 colon = tested on: HCT-116 colon
HCT-15 colon = tested on: HCT-15 colon
HL-60(TB) leukemia = tested on: HL-60(TB) leukemia
HOP-92 NSCLC = tested on: HOP-92 NSCLC
HS 578T breast = tested on: HS 578T breast
HT29 colon = tested on: HT29 colon
KM12 colon = tested on: KM12 colon
LOX IMVI melanoma = tested on: LOX IMVI melanoma
M14 melanoma = tested on: M14 melanoma
MALME-3M melanoma = tested on: MALME-3M melanoma
MCF7 breast = tested on: MCF7 breast
MDA-MB-231 breast = tested on: MDA-MB-231 breast
MDA-N = tested on: MDA-N
MOLT-4 leukemia = tested on: MOLT-4 leukemia
NCI-H23 lung = tested on: NCI-H23 lung
NCI-H460 lung = tested on: NCI-H460 lung
NCI-H522 lung = tested on: NCI-H522 lung
NCI/ADR-RES ovarian = tested on: NCI/ADR-RES ovarian
OVCAR-3 ovarian = tested on: OVCAR-3 ovarian
OVCAR-4 ovarian = tested on: OVCAR-4 ovarian
OVCAR-5 ovarian = tested on: OVCAR-5 ovarian
OVCAR-8 ovarian = tested on: OVCAR-8 ovarian
PC-3 prostate = tested on: PC-3 prostate
RPMI-8226 leukemia = tested on: RPMI-8226 leukemia
SF-295 CNS = tested on: SF-295 CNS
SK-MEL-28 melanoma = tested on: SK-MEL-28 melanoma
SK-MEL-5 melanoma = tested on: SK-MEL-5 melanoma
SK-OV-3 ovarian = tested on: SK-OV-3 ovarian
SW-620 colon = tested on: SW-620 colon
T-47D breast = tested on: T-47D breast
TK-10 renal = tested on: TK-10 renal
U251 CNS = tested on: U251 CNS
UACC-257 melanoma = tested on: UACC-257 melanoma
UACC-62 melanoma = tested on: UACC-62 melanoma
BT-549 breast = tested on: BT-549 breast
EKVX NSCLC = tested on: EKVX NSCLC
HOP-62 NSCLC = tested on: HOP-62 NSCLC
IGROV1 ovarian = tested on: IGROV1 ovarian
SF-268 CNS = tested on: SF-268 CNS
SK-MEL-2 melanoma = tested on: SK-MEL-2 melanoma
SR leukemia = tested on: SR leukemia
UO-31 renal = tested on: UO-31 renal

OCCOCCO[P+]1(OCCOCCO)n2c3ccc2C(c2ccccc2)=C2C=CC(=N2)C(c2ccccc2)=c2ccc(n21)=C(c1ccccc1)C1=NC(=C3c2ccccc2)C=C1
TGI (786-0 renal): 1510 nM
TGI (A498 renal): > 100000 nM
TGI (A549 NSCLC): 3290 nM
TGI (ACHN renal): 1050 nM
TGI (CAKI-1 renal): 3790 nM
TGI (CCRF-CEM leukemia): 1140 nM
TGI (COLO 205 colon): 99.8 nM
TGI (DU-145 prostate): 1720 nM
TGI (HCC-2998 colon): 321 nM
TGI (HCT-116 colon): 358 nM
TGI (HCT-15 colon): 3210 nM
TGI (HL-60(TB) leukemia): 180 nM
TGI (HOP-92 NSCLC): > 100000 nM
TGI (HS 578T breast): 379 nM
TGI (HT29 colon): 358 nM
TGI (KM12 colon): 429 nM
TGI (LOX IMVI melanoma): 952 nM
TGI (M14 melanoma): 1380 nM
TGI (MALME-3M melanoma): 706 nM
TGI (MCF7 breast): 1550 nM
TGI (MDA-MB-231 breast): 247 nM
TGI (MDA-N): 121 nM
TGI (MOLT-4 leukemia): 189 nM
TGI (NCI-H23 lung): 629 nM
TGI (NCI-H460 lung): 886 nM
TGI (NCI-H522 lung): 448 nM
TGI (NCI/ADR-RES ovarian): > 67500 nM
TGI (OVCAR-3 ovarian): 158 nM
TGI (OVCAR-4 ovarian): 1050 nM
TGI (OVCAR-5 ovarian): 1950 nM
TGI (OVCAR-8 ovarian): 2090 nM
TGI (PC-3 prostate): 1200 nM
TGI (RPMI-8226 leukemia): 89.6 nM
TGI (SF-295 CNS): 1030 nM
TGI (SK-MEL-28 melanoma): 778 nM
TGI (SK-MEL-5 melanoma): 134 nM
TGI (SK-OV-3 ovarian): 1790 nM
TGI (SW-620 colon): 1310 nM
TGI (T-47D breast): 2040 nM
TGI (TK-10 renal): 1740 nM
TGI (U251 CNS): > 100000 nM
TGI (UACC-257 melanoma): 124 nM
TGI (UACC-62 melanoma): 633 nM

CC1(C)[C@H](O)CC[C@]2(C)C3=CC[C@@]4(C)[C@@H]5C[C@](C)(CO)CC[C@]5(C)CC[C@]4(C)C3=CC[C@@H]12
TGI (BT-549 breast): > 100000 nM
TGI (COLO 205 colon): > 100000 nM
TGI (DU-145 prostate): > 100000 nM
TGI (EKVX NSCLC): > 100000 nM
TGI (HL-60(TB) leukemia): > 100000 nM
TGI (HOP-62 NSCLC): > 100000 nM
TGI (HOP-92 NSCLC): > 100000 nM
TGI (IGROV1 ovarian): > 100000 nM
TGI (M14 melanoma): > 100000 nM
TGI (MALME-3M melanoma): > 100000 nM
TGI (MCF7 breast): > 100000 nM
TGI (MDA-N): > 100000 nM
TGI (MOLT-4 leukemia): > 100000 nM
TGI (NCI-H23 lung): > 100000 nM
TGI (NCI-H522 lung): > 100000 nM
TGI (OVCAR-5 ovarian): > 100000 nM
TGI (SF-268 CNS): > 100000 nM
TGI (SK-MEL-2 melanoma): > 100000 nM
TGI (SK-MEL-28 melanoma): > 100000 nM
TGI (SK-MEL-5 melanoma): > 100000 nM
TGI (SK-OV-3 ovarian): > 100000 nM
TGI (SR leukemia): 4720 nM
TGI (UACC-257 melanoma): > 100000 nM
TGI (UACC-62 melanoma): > 100000 nM
TGI (UO-31 renal): 3620 nM
